In US20210045385A1, “PYRIDAZINONE-SUBSTITUTED KETOXIMES AS HERBICIDES” (FMC Corporation, priority 2018, published 2021):

Legend:
Format in all cases: in vivo
[1] = test system: Italian ryegrass (Lolium multiflorum); assay: Test A preemergence, visual plant response rating; conditions: for Ryegrass, Italian plant response rating: 125 g ai/ha, preemergence, 0 to 100 scale, 0 no effect, 100 complete control; for Ryegrass, Italian plant response rating (0 to 100 scale): 500 g ai/ha Preemergence, approx. 10 days
Method in brief: (§1)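 Formulated in a non-phytotoxic solvent mixture including surfactant, each test chemical was sprayed onto the soil surface after sowing, or onto seedlings 2 to 10 cm high. Roughly 10 days later, plants were compared with untreated controls and rated for injury from 0 (no effect) to 100 (complete control).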

[2] = test system: pigweed (Amaranthus retroflexus); assay: Test A preemergence, visual plant response rating; conditions: for Pigweed plant response rating: 125 g ai/ha, preemergence, 0 to 100 scale, 0 no effect, 100 complete control; for Pigweed plant response rating (0 to 100 scale): 500 g ai/ha Preemergence, approx. 10 days
Method in brief: as §1

[3] = test system: kochia (Kochia scoparia); assay: Test A preemergence, visual plant response rating; conditions: for Kochia plant response rating: 125 g ai/ha, preemergence, 0 to 100 scale, 0 no effect, 100 complete control; for Kochia plant response rating (0 to 100 scale): 500 g ai/ha Preemergence, approx. 10 days
Method in brief: as §1

[4] = test system: ragweed (common ragweed, Ambrosia elatior); assay: Test A preemergence, visual plant response rating; conditions: for Ragweed plant response rating: 125 g ai/ha, preemergence, 0 to 100 scale, 0 no effect, 100 complete control; for Ragweed plant response rating (0 to 100 scale): 500 g ai/ha Preemergence, approx. 10 days
Method in brief: as §1

[5] = test system: foxtail, giant (giant foxtail, Setaria faberii); assay: Test A preemergence, visual plant response rating; conditions: for Foxtail, Giant plant response rating: 125 g ai/ha, preemergence, 0 to 100 scale, 0 no effect, 100 complete control; for Foxtail, Giant plant response rating (0 to 100 scale): 500 g ai/ha Preemergence, approx. 10 days
Method in brief: as §1

[6] = test system: barnyardgrass (Echinochloa crus-galli); assay: Test A preemergence, visual plant response rating; conditions: for Barnyardgrass plant response rating: 125 g ai/ha, preemergence, 0 to 100 scale, 0 no effect, 100 complete control; for Barnyardgrass plant response rating (0 to 100 scale): 500 g ai/ha Preemergence, approx. 10 days
Method in brief: as §1

[7] = test system: ducksalad (Heteranhera limosa); assay: Test B flooded paddy test, visual plant response rating; conditions: 250 g ai/ha, Flood, applied to paddy water, 2-leaf stage, evaluated after 13 to 15 days
Method in brief: (§2)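 Greenhouse paddy conditions applied: two-leaf plants, a 3 cm flood above the soil surface maintained throughout, and compound added to the water rather than the foliage. Plants were judged visually against controls at 13 to 15 days.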

[8] = test system: rice (Oryza sativa); assay: as above; conditions: 250 g ai/ha, Flood, applied to paddy water, 2-leaf stage, evaluated after 13 to 15 days
Method in brief: as §2

[9] = test system: sedge, umbrella (small-flower umbrella sedge, Cyperus difformis); assay: as above; conditions: 250 g ai/ha, Flood, applied to paddy water, 2-leaf stage, evaluated after 13 to 15 days
Method in brief: as §2

[10] = test system: barnyardgrass (Echinochloa crus-galli); assay: as above; conditions: 250 g ai/ha, Flood, applied to paddy water, 2-leaf stage, evaluated after 13 to 15 days
Method in brief: as §2

[11] = test system: Italian ryegrass (Lolium multiflorum); assay: Test A postemergence, visual plant response rating; conditions: for Ryegrass, Italian plant response rating (0 to 100 scale): 500 g ai/ha, postemergence, 0 is no effect, 100 is complete control; for Ryegrass, Italian plant response rating: Postemergence, 125 g ai/ha, 0 to 100 scale (0 no effect, 100 complete control)
Method in brief: as §1

[12] = test system: pigweed (Amaranthus retroflexus); assay: Test A postemergence, visual plant response rating; conditions: for Pigweed plant response rating (0 to 100 scale): 500 g ai/ha, postemergence, 0 is no effect, 100 is complete control; for Pigweed plant response rating: Postemergence, 125 g ai/ha, 0 to 100 scale (0 no effect, 100 complete control)
Method in brief: as §1

[13] = test system: kochia (Kochia scoparia); assay: Test A postemergence, visual plant response rating; conditions: for Kochia plant response rating (0 to 100 scale): 500 g ai/ha, postemergence, 0 is no effect, 100 is complete control; for Kochia plant response rating: Postemergence, 125 g ai/ha, 0 to 100 scale (0 no effect, 100 complete control)
Method in brief: as §1

[14] = test system: wheat (Triticum aestivum); assay: Test A postemergence, visual plant response rating; conditions: for Wheat plant response rating (0 to 100 scale): 500 g ai/ha, postemergence, 0 is no effect, 100 is complete control; for Wheat plant response rating: Postemergence, 125 g ai/ha, 0 to 100 scale (0 no effect, 100 complete control)
Method in brief: as §1

[15] = test system: blackgrass (Alopecurus myosuroides); assay: Test A postemergence, visual plant response rating; conditions: for Blackgrass plant response rating (0 to 100 scale): 500 g ai/ha, postemergence, 0 is no effect, 100 is complete control; for Blackgrass plant response rating: Postemergence, 125 g ai/ha, 0 to 100 scale (0 no effect, 100 complete control)
Method in brief: as §1

[16] = test system: ragweed (common ragweed, Ambrosia elatior); assay: Test A postemergence, visual plant response rating; conditions: for Ragweed plant response rating (0 to 100 scale): 500 g ai/ha, postemergence, 0 is no effect, 100 is complete control; for Ragweed plant response rating: Postemergence, 125 g ai/ha, 0 to 100 scale (0 no effect, 100 complete control)
Method in brief: as §1

[17] = test system: foxtail, giant (giant foxtail, Setaria faberii); assay: Test A postemergence, visual plant response rating; conditions: for Foxtail, Giant plant response rating (0 to 100 scale): 500 g ai/ha, postemergence, 0 is no effect, 100 is complete control; for Foxtail, Giant plant response rating: Postemergence, 125 g ai/ha, 0 to 100 scale (0 no effect, 100 complete control)
Method in brief: as §1

[18] = test system: galium (catchweed bedstraw, Galium aparine); assay: Test A postemergence, visual plant response rating; conditions: for Galium plant response rating (0 to 100 scale): 500 g ai/ha, postemergence, 0 is no effect, 100 is complete control; for Galium plant response rating: Postemergence, 125 g ai/ha, 0 to 100 scale (0 no effect, 100 complete control)
Method in brief: as §1

[19] = test system: corn (Zea mays); assay: Test A postemergence, visual plant response rating; conditions: for Corn plant response rating (0 to 100 scale): 500 g ai/ha, postemergence, 0 is no effect, 100 is complete control; for Corn plant response rating: Postemergence, 125 g ai/ha, 0 to 100 scale (0 no effect, 100 complete control)
Method in brief: as §1

[20] = test system: barnyardgrass (Echinochloa crus-galli); assay: Test A postemergence, visual plant response rating; conditions: for Barnyardgrass plant response rating (0 to 100 scale): 500 g ai/ha, postemergence, 0 is no effect, 100 is complete control; for Barnyardgrass plant response rating: Postemergence, 125 g ai/ha, 0 to 100 scale (0 no effect, 100 complete control)
Method in brief: as §1

SMILES | Ryegrass, Italian plant response rating [1] | Ryegrass, Italian plant response rating (0 to 100 scale) [1] | Pigweed plant response rating [2] | Pigweed plant response rating (0 to 100 scale) [2] | Kochia plant response rating [3] | Kochia plant response rating (0 to 100 scale) [3] | Ragweed plant response rating [4] | Ragweed plant response rating (0 to 100 scale) [4] | Foxtail, Giant plant response rating [5] | Foxtail, Giant plant response rating (0 to 100 scale) [5] | Barnyardgrass plant response rating [6] | Barnyardgrass plant response rating (0 to 100 scale) [6] | Plant response rating, Ducksalad (0 to 100 scale, 0 is no effect, 100 is complete control) [7] | Plant response rating, Rice (0 to 100 scale, 0 is no effect, 100 is complete control) [8] | Plant response rating, Sedge, Umbrella (0 to 100 scale, 0 is no effect, 100 is complete control) [9] | Plant response rating, Barnyardgrass (0 to 100 scale, 0 is no effect, 100 is complete control) [10] | Ryegrass, Italian plant response rating (0 to 100 scale) [11] | Ryegrass, Italian plant response rating [11] | Pigweed plant response rating (0 to 100 scale) [12] | Pigweed plant response rating [12] | also measured
CON=C(c1cc(Cl)ccc1C(F)(F)F)c1c(O)c(C)nn(C)c1=O [Compound 97] | 80 | 100 | 40 | 90 | 20 | 50 | 60 | 100 | 80 | 90 | 70 | 90 | 0 | 0 | 0 | 0 | 100 | 90 | 80 | 80 | Kochia plant response rating (0 to 100 scale) [13]: 70; Kochia plant response rating [13]: 60; Wheat plant response rating (0 to 100 scale) [14]: 50; Wheat plant response rating [14]: 30; Blackgrass plant response rating (0 to 100 scale) [15]: 90; Blackgrass plant response rating [15]: 70; Ragweed plant response rating (0 to 100 scale) [16]: 80; Ragweed plant response rating [16]: 70; Foxtail, Giant plant response rating (0 to 100 scale) [17]: 80; Foxtail, Giant plant response rating [17]: 70; Galium plant response rating (0 to 100 scale) [18]: 90; Galium plant response rating [18]: 70; Corn plant response rating (0 to 100 scale) [19]: 40; Corn plant response rating [19]: 0; Barnyardgrass plant response rating (0 to 100 scale) [20]: 60; Barnyardgrass plant response rating [20]: 40
CON=C(c1c(O)c(C)nn(C)c1=O)c1cccc2cc(Br)ccc12 [Compound 100] | 50 | 100 | 90 | 100 | 10 | 60 | 100 | 100 | 60 | 100 | 50 | 80 | 0 | 0 | 0 | 0 | 90 | 80 | 90 | 90 | Kochia plant response rating (0 to 100 scale) [13]: 70; Kochia plant response rating [13]: 70; Wheat plant response rating (0 to 100 scale) [14]: 50; Wheat plant response rating [14]: 0; Blackgrass plant response rating (0 to 100 scale) [15]: 90; Blackgrass plant response rating [15]: 90; Ragweed plant response rating (0 to 100 scale) [16]: 100; Ragweed plant response rating [16]: 90; Foxtail, Giant plant response rating (0 to 100 scale) [17]: 80; Foxtail, Giant plant response rating [17]: 70; Galium plant response rating (0 to 100 scale) [18]: 90; Galium plant response rating [18]: 90; Corn plant response rating (0 to 100 scale) [19]: 40; Corn plant response rating [19]: 10; Barnyardgrass plant response rating (0 to 100 scale) [20]: 70; Barnyardgrass plant response rating [20]: 30
CON=C(c1c(Cl)ccc(C)c1F)c1c(O)c(C)nn(C)c1=O [Compound 101] | 0 | 40 | 0 | 10 | 0 | 10 | 20 | 70 | 0 | 10 | 0 | 10 | 0 | 0 | 0 | 0 | 10 | 0 | 40 | 10 | Kochia plant response rating (0 to 100 scale) [13]: 30; Kochia plant response rating [13]: 0; Wheat plant response rating (0 to 100 scale) [14]: 0; Wheat plant response rating [14]: 0; Blackgrass plant response rating (0 to 100 scale) [15]: 30; Blackgrass plant response rating [15]: 0; Ragweed plant response rating (0 to 100 scale) [16]: 60; Ragweed plant response rating [16]: 40; Foxtail, Giant plant response rating (0 to 100 scale) [17]: 20; Foxtail, Giant plant response rating [17]: 0; Galium plant response rating (0 to 100 scale) [18]: 80; Galium plant response rating [18]: 80; Corn plant response rating (0 to 100 scale) [19]: 0; Corn plant response rating [19]: 0; Barnyardgrass plant response rating (0 to 100 scale) [20]: 30; Barnyardgrass plant response rating [20]: 30
CON=C(c1cccc(C(F)(F)F)c1Cl)c1c(O)c(C)nn(C)c1=O [Compound 102] | 20 | 50 | 0 | 10 | 0 | 0 | 20 | 40 | 0 | 30 | 0 | 40 | 0 | 0 | 0 | 0 | 30 | 0 | 40 | 20 | Kochia plant response rating (0 to 100 scale) [13]: 20; Kochia plant response rating [13]: 20; Wheat plant response rating (0 to 100 scale) [14]: 30; Wheat plant response rating [14]: 0; Blackgrass plant response rating (0 to 100 scale) [15]: 30; Blackgrass plant response rating [15]: 0; Ragweed plant response rating (0 to 100 scale) [16]: 30; Ragweed plant response rating [16]: 10; Foxtail, Giant plant response rating (0 to 100 scale) [17]: 30; Foxtail, Giant plant response rating [17]: 10; Galium plant response rating (0 to 100 scale) [18]: 70; Galium plant response rating [18]: 40; Corn plant response rating (0 to 100 scale) [19]: 0; Corn plant response rating [19]: 0; Barnyardgrass plant response rating (0 to 100 scale) [20]: 30; Barnyardgrass plant response rating [20]: 20
